Source: publication PMC6440584 (Eurosurveillance, 2019)

What was measured:
[1] = test system: influenza A(H3N2) virus A/YOKOHAMA/87/2019 (PA I38T); format: cell-based
[2] = test system: influenza A(H3N2) virus A/YOKOHAMA/88/2019 (PA I38T); format: cell-based
[3] = molecular target: neuraminidase (NA) of influenza A(H3N2) virus A/YOKOHAMA/87/2019 (Influenza A virus, UniProt A0A193ACB1); format: biochemical
[4] = molecular target: neuraminidase (NA) of influenza A(H3N2) virus A/YOKOHAMA/88/2019 (Influenza A virus, UniProt A0A193ACB1); format: biochemical

| Compound | IC50 [1] [nM] | fold higher IC50 compared with the median IC50 of A(H3N2) viruses of the 2018/19 season [1] [fold] | IC50 [2] [nM] | fold higher IC50 compared with the median IC50 of A(H3N2) viruses of the 2018/19 season [2] [fold] | IC50 [3] [nM] | IC50 [4] [nM] |
| --- | --- | --- | --- | --- | --- | --- |
| CCC(CC)[C@H](NC(C)=O)[C@@H]1[C@H](O)[C@@H](C(=O)O)C[C@H]1N=C(N)N [Peramivir, peramivir] | – | – | – | – | 0.16 | 0.13 |
